In one data set the test system is C. symbiosum. Description: RNA-seq after MTX treatment. Particulars: MTX 100 μg/ml, 30 minutes; padj<0.2, DESeq. Type of data set: cell-based, Clostridium symbiosum. On the procedure: Genomes were obtained from NCBI's GenBank Assembly database. Culture media was composed of BHI+and allowed to equilibrate in an anaerobic environment prior to use. Briefly, bacteria were cultured in BHI+at 37° C. in an anaerobic chamber. Cultures for each isolate were grown to mid-exponential (achieving an OD600˜0.5), aliquoted into triplicates, treated for 30 minutes with either DMSO or MTX 100 μg/ml, and then removed from the anaerobic chamber. […]
Total RNA was subjected to rRNA depletion using Ribo-Zero Bacterial rRNA Depletion (Illumina, catalog #: MRZB12424), following the manufacturer's protocol. […] For each sample, fastq files are available in NCBI's Sequence Read Archive (SRA), accession number PRJNA656577.
Reads were trimmed using Trimmomatic (v0.32) (Bolger, A. M., et al., (2014), Bioinformatics 30, 2114-2120), and ribosomal reads were removed using SortMeRNA (v2.1) (Kopylova, E., et al., (2012), Bioinformatics 28, 3211-3217). Reads were mapped to reference genomes using Bowtie2 (Langmead, B., and Salzberg, S. L. (2012), Nat Methods 9, 357-359) using the following options: -q, —met file, —end-to-end, —sensitive. […]

Data set [1] is described as follows: Targeted LC-MS for MTX in RA donor stool samples used for fecal transplant. Set-up: species or system human. Particulars: limit of quantification 100 nM.

SMILES strings stand for the structures.

From US20220160712A1, “METHODS OF TREATING RHEUMATOID ARTHRITIS AND FOR PREDICTING THE RESPONSE TO METHOTREXATE” (CHAN ZUCKERBERG BIOHUB, INC., priority 2020, published 2022) come the findings set out here.

As to `CN(Cc1cnc2nc(N)nc(N)c2n1)c1ccc(C(=O)N[C@@H](CCC(=O)O)C(=O)O)cc1` [MTX, methotrexate], in the data set with C. symbiosum, the “number of differentially expressed genes” value is given as 55 genes. Moreover, the “MTX in pre-MTX and post-MTX stool samples from RA donors” value in data set [1] is given as “not detected”.
